Results published in US11046686B2, “Thiadiazole IRAK4 compounds” (Gilead Sciences, Inc., priority 2018, dated 2021).
Where two headings read alike, the source gives them in different places.

Legend:
TNFα = assay: IRAK4 Monocyte TNFα Cell Based Assay; parameters: species or system human
Procedure, shortened: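 Human monocytes (5,000/well) pretreated with compound 1 h at 37 °C (0.1% DMSO final), then stimulated with 50 pg/ml LPS for 4 h. Secreted TNFα measured by TR-FRET two-antibody detection after overnight incubation at room temperature; % control relative to unstimulated and LPS-stimulated wells.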

IRAK4 enzyme = IRAK4 enzyme (Homo sapiens (Human), UniProt Q9NWZ3); assay: IRAK4 Biochemical Assay (TR-FRET, STK1 KinEASE)
Protocol: IRAK4 enzyme (Carna Biosciences, Chuo-ku, Kobe, Japan) activity was measured by detecting phosphorylated peptide substrate formation using an antibody against the phosphorylated peptide substrate. This is a time-resolved fluorescence resonance energy transfer (TR-FRET) immunoassay, based on the STK1 KinEASE Assay (Cisbio, Bedford, Mass.). The assay was designed as a simple two-step, endpoint assay (a 5 μl enzyme reaction followed by 5 μl stop and detect Solution) performed in ProxiPlate-384 Plus plates (Perkin Elmer, Waltham, Mass.). […] Compounds diluted in DMSO were spotted into 384 well plates using a Labcyte® Echo 550 Liquid Handling System prior to addition of IRAK4 enzyme and peptide substrate. Reaction solutions were delivered using a Multi-Flo (Bio-Tek Instruments). The enzyme and peptide solution was incubated with compound for 15 minutes at room temp before the reaction was initiated by the addition of ATP. The standard 5 μl reaction mixture contained 500 μM ATP, […] peptide (STK1 Peptide), 0.75 nM of IRAK4 in reaction buffer (50 mM HEPES, pH 7.0, 0.02% NaN3, 0.01% BSA, 0.1 mM Orthovanadate, 5 mM […], 0.025% NP-40, 1 mM DTT). After 120 min of incubation at room temperature, 5 μl of Stop and Detect Solution (1:100 Cryptate labeled anti-phosphorylated peptide antibody solution and 125 nM Tracer in a 50 mM HEPES pH 7.0 detection buffer containing sufficient EDTA) was added. The plate was then further incubated for 60 minutes at room temperature and read on Envision 2103 Multilabeled reader (PerkinElmer) with excitation/emission/FRET emission at 340 nm/615 nm665 nm, respectively. Fluorescence intensities at 615 nm and 665 nm emission wavelengths were expressed as aratio (665 nm/615 nm). Percentage of inhibition was calculated as below: % Inhibition=100×(Ratiosample−Ratio0% Inhibition)/(Ratio100% Inhibition−Ratio0% Inhibition)
The 0% inhibition value comes from control wells lacking inhibitor.

[1] = Homo sapiens, Monocyte, human monocytes, second part of Table 2, compounds 33-343, unit inferred, read-out: EC50 MONO TNF HTRF

IRAK4 enzyme, sequence (Q9NWZ3 whole entry): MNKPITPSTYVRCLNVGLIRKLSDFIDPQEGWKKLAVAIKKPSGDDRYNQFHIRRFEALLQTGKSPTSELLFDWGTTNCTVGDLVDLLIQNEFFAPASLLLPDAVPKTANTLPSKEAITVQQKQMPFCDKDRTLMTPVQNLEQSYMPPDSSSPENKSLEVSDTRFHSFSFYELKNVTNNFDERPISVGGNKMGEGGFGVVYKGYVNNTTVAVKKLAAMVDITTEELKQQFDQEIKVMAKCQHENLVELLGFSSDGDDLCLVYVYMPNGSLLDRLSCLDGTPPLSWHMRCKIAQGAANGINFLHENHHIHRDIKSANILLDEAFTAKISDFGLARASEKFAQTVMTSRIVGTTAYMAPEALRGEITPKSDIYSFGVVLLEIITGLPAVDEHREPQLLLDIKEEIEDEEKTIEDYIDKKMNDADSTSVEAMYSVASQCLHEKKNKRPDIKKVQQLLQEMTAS

SMILES | EC50 (TNFα; [1]) [nM] | IC50 (IRAK4 enzyme) [nM] | other results
COC(=O)NC[C@H]1C[C@H](Nc2cc(-c3ccc4cc(C#N)cnn34)ncc2-c2nnc([C@H]3CC[C@H](NC(C)=O)CC3)s2)C1 [Example 23, methyl (((1R,3r)-3-((5-(5-((1r,4R)-4-acetamidocyclohexyl)-1,3,4-thiadiazol-2-yl)-2-(3-cyanopyrrolo[1,2-b]pyridazin-7-yl)pyridin-4-yl)amino)cyclobutyl)methyl)carbamate] |  |  | EC50 (TNFα; Homo sapiens, Monocyte, human monocytes, LPS stimulated, compounds 1-32, read-out: EC50 TNF): 6 nM; IC50 (IRAK4 enzyme; compounds 1-32, read-out: IC50 HTRF): < 1 nM
CC(=O)NC1CCCN(c2nnc(-c3cnc(-c4ccc5cc(C#N)cnn45)cc3NC(C)C)s2)CC1 (stereo not drawn) [Example 298, N-(1-(5-(6-(3-cyanopyrrolo[1,2-b]pyridazin-7-yl)-4-(isopropylamino)pyridin-3-yl)-1,3,4-thiadiazol-2-yl)azepan-4-yl)acetamide] | 36.3 | 0.61 | 
CC(C)Nc1cc(-c2ccc3cc(C#N)cnn23)ncc1-c1nnc(CC(=O)O)s1 [Example 319, 2-(5-(6-(3-cyanopyrrolo[1,2-b]pyridazin-7-yl)-4-(isopropylamino)pyridin-3-yl)-1,3,4-thiadiazol-2-yl)acetic acid] | 126 | 1.68 | 
CC(=O)N[C@@H]1[C@@H]2CC[C@H]1N(c1nnc(-c3cnc(-c4ccc5cc(C#N)cnn45)cc3NC(C)C)s1)C2 [Example 137, N-((1R,4R,7R)-2-(5-(6-(3-cyanopyrrolo[1,2-b]pyridazin-7-yl)-4-(isopropylamino)pyridin-3-yl)-1,3,4-thiadiazol-2-yl)-2-azabicyclo[2.2.1]heptan-7-yl)acetamide] | 6.5 | 0.85 | 
N#Cc1cnn2c(-c3cc(NC4CCOCC4)c(-c4nnc(N5CC6CCC(C5)O6)s4)cn3)ccc2c1 [Compound 256, 7-(5-(5-(8-oxa-3-azabicyclo[3.2.1]octan-3-yl)-1,3,4-thiadiazol-2-yl)-4-((tetrahydro-2H-pyran-4-yl)amino)pyridin-2-yl)pyrrolo[1,2-b]pyridazine-3-carbonitrile] | 4.6 | 0.68 | 
CC(C)Nc1cc(-c2ccc3cc(C#N)cnn23)ncc1-c1nnc(N2C[C@H]3CC[C@@H](C2)[C@@H]3NC(=O)C2CN(C)C2)s1 [Example 102, N-((1R,5S,8s)-3-(5-(6-(3-cyanopyrrolo[1,2-b]pyridazin-7-yl)-4-(isopropylamino)pyridin-3-yl)-1,3,4-thiadiazol-2-yl)-3-azabicyclo[3.2.1]octan-8-yl)-1-methylazetidine-3-carboxamide] |  |  | EC50 (TNFα; human monocytes, second part of Table 2, compounds 33-343, unit inferred, read-out: EC50 MONO TNF HTRF): 31.4 nM; IC50 (IRAK4 enzyme; second part of Table 2, compounds 33-343, unit inferred, read-out: IC50 IRAK4-HTBS): 1.22 nM
[2H]C([2H])([2H])C(O)(CCc1nnc(-c2cnc(-c3ccc4cc(C#N)cnn34)cc2NC(C)C)s1)C([2H])([2H])[2H] [Example 317, 7-(5-(5-(3-hydroxy-3-(methyl-d3)butyl-4,4,4-d3)-1,3,4-thiadiazol-2-yl)-4-(isopropylamino)pyridin-2-yl)pyrrolo[1,2-b]pyridazine-3-carbonitrile] | 4.4 | 0.6 | 
CC(C)Nc1cc(-c2ccc3cc(C#N)cnn23)ncc1-c1nnc(N2CC3CC(C2)N3C(=O)C(C)(C)O)s1 [Compound 273, 7-(5-(5-(6-(2-hydroxy-2-methylpropanoyl)-3,6-diazabicyclo[3.1.1]heptan-3-yl)-1,3,4-thiadiazol-2-yl)-4-(isopropylamino)pyridin-2-yl)pyrrolo[1,2-b]pyridazine-3-carbonitrile] |  | 0.68 | EC50 (TNFα; Homo sapiens, Monocyte, read-out: EC50 MONO TNF HTRF): 4.1 nM
CC(C)Nc1cc(-c2ccc3cc(C#N)cnn23)ncc1-c1nnc(N2C[C@@H]3C[C@H]2CO3)s1 [Compound 238, 7-(5-(5-((1S,4S)-2-oxa-5-azabicyclo[2.2.1]heptan-5-yl)-1,3,4-thiadiazol-2-yl)-4-(isopropylamino)pyridin-2-yl)pyrrolo[1,2-b]pyridazine-3-carbonitrile] | 12.6 | 0.46 | 
CC(=O)N[C@H]1C[C@@H]2C[C@H]1CN2c1nnc(-c2cnc(-c3ccc4cc(C#N)cnn34)cc2NC(C)C)s1 [Example 74, N-((1S,4S,5S)-2-(5-(6-(3-cyanopyrrolo[1,2-b]pyridazin-7-yl)-4-(isopropylamino)pyridin-3-yl)-1,3,4-thiadiazol-2-yl)-2-azabicyclo[2.2.1]heptan-5-yl)acetamide] | 11 | 0.54 | 
CC(C)Nc1cc(-c2ccc3cc(C#N)cnn23)ncc1-c1nnc(C(=O)N2CC[C@H](NC(=O)C3CC3)C2)s1 [Example 46, (S)-N-(1-(5-(6-(3-cyanopyrrolo[1,2-b]pyridazin-7-yl)-4-(isopropylamino)pyridin-3-yl)-1,3,4-thiadiazole-2-carbonyl)pyrrolidin-3-yl)cyclopropanecarboxamide] | 16.7 | 0.67 | 
CC(=O)NC1CCN(c2nnc(-c3cnc(-c4ccc5cc(C#N)cnn45)cc3NC(C)C)s2)CC1(F)F (stereo not drawn) [Compound 251, N-(1-(5-(6-(3-cyanopyrrolo[1,2-b]pyridazin-7-yl)-4-(isopropylamino)pyridin-3-yl)-1,3,4-thiadiazol-2-yl)-3,3-difluoropiperidin-4-yl)acetamide] | 4.4 | 0.48 | 
CC(=O)N[C@@H]1CCN(c2nnc(-c3cnc(-c4ccc5cc(C#N)cnn45)cc3NC(C)C)s2)C[C@@H]1F [Compound 250, N-((3S,4R)-1-(5-(6-(3-cyanopyrrolo[1,2-b]pyridazin-7-yl)-4-(isopropylamino)pyridin-3-yl)-1,3,4-thiadiazol-2-yl)-3-fluoropiperidin-4-yl)acetamide] | 8.3 | 1.17 | 
CC(C)Nc1cc(-c2ccc3cc(C#N)cnn23)ncc1-c1nnc(N2CC[C@](C)(O)[C@@H](F)C2)s1 [Example 190, 7-(5-(5-((3S,4S)-3-fluoro-4-hydroxy-4-methylpiperidin-1-yl)-1,3,4-thiadiazol-2-yl)-4-(isopropylamino)pyridin-2-yl)pyrrolo[1,2-b]pyridazine-3-carbonitrile] | 11.7 | 1.39 | 
CC(C)Nc1cc(-c2ccc3cc(C#N)cnn23)ncc1-c1nnc(N2CC[C@H](O)C(F)(F)C2)s1 [Example 161, (S)-7-(5-(5-(3,3-difluoro-4-hydroxypiperidin-1-yl)-1,3,4-thiadiazol-2-yl)-4-(isopropylamino)pyridin-2-yl)pyrrolo[1,2-b]pyridazine-3-carbonitrile] | 34.7 | 1.48 | 
CC(=O)N1CCN(c2nnc(-c3cnc(-c4ccc5cc(C#N)cnn45)cc3NC(C)C)s2)C2CC21 (stereo not drawn) [Compound 267, 7-(5-(5-(5-acetyl-2,5-diazabicyclo[4.1.0]heptan-2-yl)-1,3,4-thiadiazol-2-yl)-4-(isopropylamino)pyridin-2-yl)pyrrolo[1,2-b]pyridazine-3-carbonitrile] | 18.9 | 0.65 | 
CC(C)Nc1cc(-c2ccc3cc(C#N)cnn23)ncc1-c1nnc(N2CC[C@@](C)(O)[C@H](F)C2)s1 [Example 191, 7-(5-(5-((3R,4R)-3-fluoro-4-hydroxy-4-methylpiperidin-1-yl)-1,3,4-thiadiazol-2-yl)-4-(isopropylamino)pyridin-2-yl)pyrrolo[1,2-b]pyridazine-3-carbonitrile] | 22.9 | 1.15 | 
CC(C)Nc1cc(-c2ccc3cc(C#N)cnn23)ncc1-c1nnc(C(=O)N2CC[C@@H](NC(=O)OC(C)(C)C)C2)s1 [Example 222, tert-butyl (R)-(1-(5-(6-(3-cyanopyrrolo[1,2-b]pyridazin-7-yl)-4-(isopropylamino)pyridin-3-yl)-1,3,4-thiadiazole-2-carbonyl)pyrrolidin-3-yl)carbamate] | 1780 | 1.79 | 
